Measurements taken from PMC12337082 (Journal of Biochemical and Molecular Toxicology, 2025).

Legend:
MCF‐7 [1] = assay: MTT cell viability assay, MCF‐7; type: cell-based, human; conditions: Homo sapiens, MCF7, MTT
Excerpt: (§1) MCF‐7, MDA‐MB‐231, and L‐929 mouse fibroblast cell lines were obtained from the American Type Culture Collection (ATCC, Manassas, Virginia, USA). MCF‐7 is a hormone‐responsive, differentiated mammary epithelium cell line with an ER+, PR+, and HER2‐ pattern (ATCC, HTB‐22). MDA‐MB‐231 is a triple‐negative differentiated mammary epithelium cell line (ATCC, HTB‐26). The L‐929 mouse fibroblast cell line is derived from the normal subcutaneous connective tissue of a mouse and is commonly used in cytotoxicity assays (ATCC, CCL‐1). All cell lines were cultured in DMEM medium (Dulbecco's Modified Eagle Medium, Gibco), supplemented with 10% fetal bovine serum (Gibco), 1% glutamine, and penicillin/streptomycin (Gibco) in a humidified atmosphere containing 5% CO2 at 37°C. Cell viability was tested using Trypan blue staining.
(§2) The MTT [3‐(4,5‐dimethylthiazol‐2‐yl)−2,5‐diphenyltetrazolium bromide] assay is a colorimetric assay for determining cell metabolic activity. In the MTT assay, the yellow dye MTT that dissolves in water is changed by mitochondrial reductase into a purple formazan that is non‐soluble. The water‐insoluble formazan produced is solubilized in a solubilization buffer, and absorbances are detected.
(§3) In 96‐well plates, the cells were cultivated at a density of 5 × 10^3 cells/well using 100 µL medium. […] 10 μL of the MTT labeling reagent (final concentration 0.5 mg/mL) were added to each well at the end of the incubation periods, and the wells were incubated for an additional 4 h. Next, each well received 100 μL of solubilization buffer (10% SDS in 0.01 M HCl) and was overnight incubated, and the absorbance of formazan products was evaluated at 550 nm using a multi‐mode microplate reader (Synergy H1, Biotech Instruments Inc., Vermont, USA). The results were normalized relative to the absorbances of calculated percent concentrations of DMSO. All tests involved three replicates with three independent experiments.
(§4) All statistical evaluations, including t‐tests and IC50 values, were calculated using the GraphPad Prism software tool (v6.0, GraphPad Software Inc., San Diego, USA). Statistical significance was defined as p ˂ 0.05 (*p < 0.05, **p < 0.01, ***p < 0.001, ****p < 0.0001).

MDA‐MB‐231 [2] = assay: MTT cell viability assay, MDA‐MB‐231; type: cell-based, human; conditions: Homo sapiens, MTT
Excerpt: as §1, §2, §3, §4

[3] = system: L‐929 mouse fibroblast cell line; assay: MTT cell viability assay, L‐929 control fibroblasts; type: cell-based; conditions: Mus musculus
Excerpt: as §1, §2, §3, §4

[4] = system: MCF‐7, MDA‐MB‐231, and L‐929; assay: MTT cell viability assay, statements over all cell lines; type: cell-based
Excerpt: as §1, §2, §3
All statistical evaluations, including t‐tests and IC50 values, were calculated using the GraphPad Prism software tool (v6.0, GraphPad Software Inc., San Diego, USA). […]

MCF‐7 [5] = assay: Annexin V/PI staining, Tali image‐based cytometry, MCF‐7; type: cell-based, human; conditions: MCF‐7, 24 h
Excerpt: (§5) To assess apoptosis and cell death, cells were stained with Annexin V‐PI dyes (Tali Apoptosis Kit‐Annexin V Alexa Fluor 488 and PI‐, Molecular Probes A10788, Invitrogen) and quantified using Tali Image‐Based Cytometer (Invitrogen) and fluorescence microscopy (Olympus CKX41 Inverted Phase Contrast Fluorescence Microscope furbished with reflected fluorescence illuminator CKX‐RFA).
(§6) To assess whether our compounds produce their cytotoxic effects through induction of apoptosis, apoptosis was investigated using Annexin V/PI labeling and MMP methods (Figures 4A−C). In addition, by utilizing TALI image‐based cytometry and fluorescent microscopy, the number of cells was analyzed for different concentrations of agents (Table 4).

MDA‐MB‐231 [6] = assay: Annexin V/PI staining, Tali image‐based cytometry, MDA‐MB‐231; type: cell-based, human; conditions: MDA‐MB‐231, 24 h
Excerpt: as §5, §6

PGE2 release [7] = assay: PGE2 ELISA, MCF‐7; type: cell-based, human; conditions: MCF‐7, 0.5 mM, 24 h
Experimental: (§7) PGE2 ELISA kit (ENZO, ADI‐900‐001) was used to determine prostaglandin synthesis levels. MCF‐7 and MDA‐MB‐231 breast cancer cells were cultured at a density of 1 × 10^6 cells/well in a 6‐well culture dish. […] Following 24 h of incubation, the medium was replaced with a fresh one, 10 µM arachidonic acid was added, and it was further incubated for 1 h. The PGE2 levels were determined according to the kit protocol.

PGE2 release [8] = assay: PGE2 ELISA, MDA‐MB‐231; type: cell-based, human; conditions: MDA‐MB‐231, 0.5 mM, 24 h
Experimental: as §7

[9] = system: MCF‐7, MDA‐MB‐231, and L‐929 cells; assay: Mitochondrial membrane potential (JC‐1) apoptosis assay, statements over all cell lines; type: cell-based; conditions: MMP assay, similar levels for all cells including L‐929
Experimental: Apoptosis was also investigated by evaluating mitochondrial membrane potential changes (MMP assay). MCF‐7, MDA‐MB‐231, and L‐929 cells were stained with JC‐1 dye according to the manufacturer's protocols (JC‐1 MMP Assay Kit, KA1324, Abnova). The apoptotic to healthy cell ratio was calculated using absorbances collected from two different fluorescence channels (535/595 for healthy cells, 485/535 for apoptotic cells) (Synergy H1, Biotech Instruments Inc., Vermont, USA).

Leukemia = system: Leukemia; parameters: method as in Nakamura et al. (2004) [60]; conditions: 72 h, ref Nakamura et al. (2004) [60]; cited from earlier work
SSC‐9 skin cancer = system: SSC‐9 skin cancer; parameters: method as in Abo Aasy et al. (2019) [62]; conditions: 24 h, ref Abo Aasy et al. (2019) [62]; cited from earlier work

CCc1cccc2c3c([nH]c12)C(CC)(CC(=O)O)OCC3 (stereo not shown) [Etodolac, 2‐(1,8‐diethyl‐1,3,4‐tetrahydropyrano [3,4‐b]indol‐1‐yl) acetic acid, reference compound]
IC50 (MCF‐7 [1]; MCF‐7, 24 h): 750 ± 4.2 µM | IC50 (MCF‐7 [1]; MCF‐7, 48 h): 731 ± 1.37 µM | IC50 (MCF‐7 [1]; MCF‐7, 72 h): 555 ± 2.42 µM | IC50 (MDA‐MB‐231 [2]; MDA-MB-231, 24 h, MDA‐MB‐231, 24 h): 740 ± 1.65 µM | IC50 (MDA‐MB‐231 [2]; MDA-MB-231, 48 h, MDA‐MB‐231, 48 h): 699 ± 4.61 µM | IC50 (MDA‐MB‐231 [2]; MDA-MB-231, 72 h, MDA‐MB‐231, 72 h): 578 ± 3.65 µM | IC50 ([3]; L929, 24 h, L‐929, 24 h): 735 ± 3.7 µM | IC50 ([3]; L929, 48 h, L‐929, 48 h): 751 ± 9.5 µM | IC50 ([3]; L929, 72 h, L‐929, 72 h): 622 ± 4.7 µM | Concentration at which viability of the cells was reduced ([4]; all cell lines including healthy controls): 0.2−0.5 mM | IC50 ([4]; read-out: IC50 range): 500 to 1000 µM | Apoptotic cells (MCF‐7 [5]; 100 µM): 1% | Dead cells (MCF‐7 [5]; 100 µM): 5% | Live cells (MCF‐7 [5]; 100 µM): 94% | Apoptotic cells (MCF‐7 [5]; 250 µM): 2% | Dead cells (MCF‐7 [5]; 250 µM): 6% | Live cells (MCF‐7 [5]; 250 µM): 92% | Apoptotic cells (MCF‐7 [5]; 500 µM): 7% | Dead cells (MCF‐7 [5]; 500 µM): 9% | Live cells (MCF‐7 [5]; 500 µM): 84% | Apoptotic cells (MCF‐7 [5]; 1000 µM): 5% | Dead cells (MCF‐7 [5]; 1000 µM): 8% | Live cells (MCF‐7 [5]; 1000 µM): 87% | Apoptotic cells (MDA‐MB‐231 [6]; 100 µM): 1% | Dead cells (MDA‐MB‐231 [6]; 100 µM): 4% | Live cells (MDA‐MB‐231 [6]; 100 µM): 95% | Apoptotic cells (MDA‐MB‐231 [6]; 250 µM): 1% | Dead cells (MDA‐MB‐231 [6]; 250 µM): 5% | Live cells (MDA‐MB‐231 [6]; 250 µM): 94% | Apoptotic cells (MDA‐MB‐231 [6]; 500 µM): 6% | Dead cells (MDA‐MB‐231 [6]; 500 µM): 10% | Live cells (MDA‐MB‐231 [6]; 500 µM): 84% | Apoptotic cells (MDA‐MB‐231 [6]; 1000 µM): 11% | Dead cells (MDA‐MB‐231 [6]; 1000 µM): 13% | Live cells (MDA‐MB‐231 [6]; 1000 µM): 76% | Inhibition of PGE2 release (PGE2 release [7]): 57% | Inhibition of PGE2 release (PGE2 release [8]): 38% | Concentration after which apoptotic increases became detectable [9]: 0.5−1.0 mM | IC50 (Leukemia): 50 to 100 µM | IC50 (SSC‐9 skin cancer): 983 µM
